From ChEMBL document CHEMBL4387717, “Structure guided drug design to develop kallikrein 5 inhibitors to treat Netherton syndrome” (Bioorg Med Chem Lett, 2019)
Converted amounts (≈) assume the structure as drawn.

Legend:
Homo sapiens [1] = organism: Homo sapiens; assay: (§1) Selectivity index, ratio of compound effect for inhibition of recombinant C-terminal 10-His tagged human thrombin (Met1 to Glu622 residues) expressed in mouse NS0 cells to compound effect for inhibition of recombinant 6His-Q-FLAG tagged human KLK5 expressed in baculovirus infected insect Sf9 cells
[2] = Absorption property in methanol assessed as maximum absorption wavelength by UV-spectra analysis; format: physicochemical
Kallikrein-1 = Kallikrein-1 (Homo sapiens, UniProt P06870); assay: Inhibition of recombinant bovine enterokinase activated N-terminal His-tagged recombinant human KLK1 (19 to 262 residues) expressed in baculovirus infected Sf9 insect cells using 3',6'-bis(prolylphenylalanylarginylamino)3H-spiro(2-benzofuran-1,9'-xanthen)-3-one;TFA as substrate measured at 30 secs interval for 5 mins by fluorescence intensity assay
[3] = Half life in pH 4 to 8 buffer at 0.05 mg/ml over 24 hrs; format: physicochemical
[4] = Solubility of the compound in pH 4 Britton-Robinson buffer at 24 hrs; format: physicochemical; conditions: Britton-Robinson buffer, pH 4
Homo sapiens [5] = organism: Homo sapiens; assay: Selectivity index, ratio of compound effect for inhibition of recombinant C-terminal 10-His tagged human KLK7 (Glu23 to His252 residues) expressed in mouse NS0 cells to compound effect for inhibition of recombinant 6His-Q-FLAG tagged human KLK5 expressed in baculovirus infected insect Sf9 cells
[6] = Absorption property in methanol assessed as molar extinction co-efficient by UV-spectra analysis; format: physicochemical
[7] = target: Urokinase-type plasminogen activator (Homo sapiens, UniProt P00749); assay: Inhibition of recombinant C-terminal 10His-tagged human urokinase (Met1 to Leu431 residues) expressed in mouse NS0 cells using Z-GGR-AMC as substrate after 40 mins by fluorescence intensity assay
Homo sapiens [8] = organism: Homo sapiens; assay: Selectivity index, ratio of compound effect for inhibition of recombinant C-terminal 10-His tagged human KLK14 (Gln19 to Met248 residues) expressed in mouse NS0 cells to compound effect for inhibition of recombinant 6His-Q-FLAG tagged human KLK5 expressed in baculovirus infected insect Sf9 cells
Kallikrein-14 = target: T1, Kallikrein-14 (Homo sapiens, UniProt Q9P0G3); assay: Inhibition of recombinant C-terminal 10His-tagged human KLK14 (Gln19 to Met248 residues) expressed in mouse NS0 cells using BOC-VPR-AMC as substrate after 40 mins by fluorescence intensity assay
T1 sequence (Q9P0G3 whole entry): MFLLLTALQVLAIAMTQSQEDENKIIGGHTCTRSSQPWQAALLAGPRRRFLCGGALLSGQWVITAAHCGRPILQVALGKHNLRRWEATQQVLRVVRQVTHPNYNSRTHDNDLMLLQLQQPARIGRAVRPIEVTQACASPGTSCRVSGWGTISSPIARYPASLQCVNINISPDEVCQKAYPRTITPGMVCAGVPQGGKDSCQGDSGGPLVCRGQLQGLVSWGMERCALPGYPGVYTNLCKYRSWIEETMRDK

Homo sapiens [9] = organism: Homo sapiens; assay: Selectivity index, ratio of compound effect for inhibition of recombinant C-terminal 10-His tagged human KLK8 (Gln29 to Gly260 residues) expressed in mouse NS0 cells to compound effect for inhibition of recombinant 6His-Q-FLAG tagged human KLK5 expressed in baculovirus infected insect Sf9 cells
Neutrophil elastase = target: T2, Neutrophil elastase (Homo sapiens, UniProt P08246); assay: Inhibition of human neutrophil elastase using MeOSuc-AAPV-AMC as substrate after 40 mins by fluorescence intensity assay
T2 sequence (P08246 whole entry): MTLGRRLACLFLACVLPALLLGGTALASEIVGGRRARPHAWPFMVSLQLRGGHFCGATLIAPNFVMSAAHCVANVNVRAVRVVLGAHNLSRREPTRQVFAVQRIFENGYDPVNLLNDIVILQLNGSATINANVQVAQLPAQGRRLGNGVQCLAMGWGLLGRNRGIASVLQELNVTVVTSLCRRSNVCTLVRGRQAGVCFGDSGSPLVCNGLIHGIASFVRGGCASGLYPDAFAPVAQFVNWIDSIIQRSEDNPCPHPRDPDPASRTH

Homo sapiens [10] = organism: Homo sapiens; assay: as §1, with “coagulation factor 10a (Leu24” for “thrombin (Met1”, “Lys488” for “Glu622”, “baculovirus infected insect Sf9” for “mouse NS0”
Kallikrein-5 = target: T3, Kallikrein-5 (Homo sapiens, UniProt Q9Y337); assay: Inhibition of recombinant 6His-Q-FLAG tagged human KLK5 expressed in baculovirus infected Sf9 insect cells using (Tos-Gly-Pro-Arg)2[R110].2TFA as substrate measured at 30 secs interval for 5 mins by fluorescence intensity assay; conditions: read-out: pIC50 (converted)
T3 sequence (Q9Y337 whole entry): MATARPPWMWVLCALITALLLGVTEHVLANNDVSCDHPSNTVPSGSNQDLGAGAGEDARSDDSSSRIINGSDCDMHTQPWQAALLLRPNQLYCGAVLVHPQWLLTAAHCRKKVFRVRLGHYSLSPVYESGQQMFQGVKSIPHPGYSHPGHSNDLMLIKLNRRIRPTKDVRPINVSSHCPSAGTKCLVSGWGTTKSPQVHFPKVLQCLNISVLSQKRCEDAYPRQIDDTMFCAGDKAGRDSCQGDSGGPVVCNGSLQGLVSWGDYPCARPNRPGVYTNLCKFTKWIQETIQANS

Homo sapiens [11] = organism: Homo sapiens; assay: Selectivity index, ratio of compound effect for inhibition of recombinant C-terminal 6-His tagged human KLKB1 (Gly20 to Ala638 residues) expressed in mouse NS0 cells to compound effect for inhibition of recombinant 6His-Q-FLAG tagged human KLK5 expressed in baculovirus infected insect Sf9 cells
Keratinocyte [12] = assay: Induction of irritation in human epidermal keratinocytes assessed as effect on IL1alpha levels over 24 hrs; format: cell-based
[13] = Half life in pH 6 buffer at 0.05 mg/ml under H2O2-induced oxidative condition over 24 hrs; format: physicochemical; conditions: buffer with H2O2, pH 6
Prothrombin = Prothrombin (Homo sapiens, UniProt P00734); assay: Inhibition of recombinant C-terminal 10His-tagged human thrombin (Met1 to Glu622 residues) expressed in mouse NS0 cells using BOC-VPR-AMC as substrate after 40 mins by fluorescence intensity assay
Homo sapiens [14] = organism: Homo sapiens; assay: Selectivity index, ratio of compound effect for inhibition of human neutrophil elastase to compound effect for inhibition of recombinant 6His-Q-FLAG tagged human KLK5 expressed in baculovirus infected insect Sf9 cells
Homo sapiens [15] = organism: Homo sapiens; assay: Selectivity index, ratio of compound effect for inhibition of recombinant human N-terminal met-His6-tagged matriptase catalytic domain (Gly596 to Val855 residues) expressed in Escherichia coli to compound effect for inhibition of recombinant 6His-Q-FLAG tagged human KLK5 expressed in baculovirus infected insect Sf9 cells
[16] = Solubility of the compound in water at 24 hrs; format: physicochemical
Keratinocyte [17] = assay: Induction of irritation in human epidermal keratinocytes assessed as effect on cell viability over 24 hrs; format: cell-based
Coagulation factor X = Coagulation factor X (Homo sapiens, UniProt P00742); assay: Inhibition of recombinant C-terminal 10His-tagged human coagulation factor 10a (Leu24 to Lys488 residues) expressed in baculovirus infected Sf9 insect cells using Mca-RPKPVE-Nval-WRK(Dnp)-NH2 as substrate after 40 mins by fluorescence intensity assay
[18] = Half life in pH 8 buffer at 0.05 mg/ml under H2O2-induced oxidative condition over 24 hrs; format: physicochemical; conditions: buffer with H2O2, pH 8

Activity [2]: > 290 nm | IC50 (Kallikrein-1): 63.1 µM | half-life at 0.05 mg/ml [3]: > 41.7 days | solubility at 24 h [4]: 1000 µg/mL (≈ 2510 µM) | Activity [6]: > 1000 a.u.L/mol.cm | IC50 [7]: > 100 µM | IC50 (Kallikrein-14): 3.98 µM | IC50 (Neutrophil elastase): > 100 µM | IC50 (Kallikrein-5): 79.4 nM | half-life at 0.05 mg/ml [13]: 1670 min | IC50 (Prothrombin): 63.1 µM | solubility at 24 h [16]: 1000 µg/mL (≈ 2510 µM) | IC50 (Coagulation factor X): > 100 µM | half-life at 0.05 mg/ml [18]: 606 min
Structure (SMILES): N=C(N)c1ccc(NCc2nc(-c3ccccc3)c[nH]2)cc1OCc1cccnc1
Selectivity Index (Homo sapiens [1]): > 100 | Selectivity Index (Homo sapiens [5]): > 100 | Selectivity Index (Homo sapiens [8]): > 100 | Selectivity Index (Homo sapiens [9]): 10 | Selectivity Index (Homo sapiens [10]): > 100 | Selectivity Index (Homo sapiens [11]): > 100 | Activity (Keratinocyte [12]): Non-Toxic | Selectivity Index (Homo sapiens [14]): > 100 | Selectivity Index (Homo sapiens [15]): > 100 | Activity (Keratinocyte [17]): Non-Toxic
